Values of other authors as cited in patent US11414421B2, “Process for the preparation of ribociclib succinate and its novel crystalline forms thereof” (NATCO PHARMA LTD, priority 2018, dated 2022).
Like-named read-outs stand apart in the source and are kept apart here.

Which results are given for `CN(C)C(=O)c1cc2cnc(Nc3ccc(N4CCNCC4)cn3)nc2n1C1CCCC1.O=C(O)CCC(=O)O` [Ribociclib succinate, 7-cyclopentyl-N,N-dimethyl-2-{[5-(piperazin-1-yl)pyridin-2-yl]amino}-7H-pyrrolo [2,3-d]pyrimidine-6-carboxamide succinate (1/1)]?
absorbs moisture (relative humidity 0-90-0% RH): up to 2.0%; absorbs moisture (second value, printed as 0-90-0% RH): up to 0.5%
